Test results reported in patent US20250214960A1, “COMPOUNDS HAVING ACTIVITY OF DEGRADING GSPT1 AND APPLICATION THEREOF” (SHANGHAI MEIZER PHARMACEUTICALS CO., LTD., priority 2021, published 2025).
Read-outs that look alike come from different tables or passages of the source.

Biological target: T1, GSPT1 protein (Homo sapiens, UniProt P15170+Q96SW2)
T1 construct: endogenous in cells; host or cells: Jeko-1
Assay: Western blot detection of degradation activity of GSPT1 protein in Jeko-1 cells
Format: cell-based
Details: for inhibition at 0.1 µM / inhibition at 10 µM / inhibition at 0.01 µM / inhibition at 1 µM: JeKo-1, 24 h, read-out: GSPT1 degradation rate (%)
Experimental: Test Example 1: Western Blot Detection of Degradation Activity of GSPT1 Protein by the Compounds
Cell line: Jeko-1 cell line was cultured with an RPMI1640 media containing 20% fetal bovine serum in an incubator at 37° C., 5% CO2, and saturated humidity.
DMSO control group and test compound (concentration shown in the table below) were set up, after processing for 24 hours, the cells were collected, pre-cooled cell lysate was added and left on ice for 10 minutes. The total protein of the cells was extracted, and the protein concentration was measured and quantified using the BCA method. Routine gel preparation, sample loading, electrophoresis were conducted, then the membrane was transferred, and sealed, wherein the primary antibody was diluted with a blocking solution at 1:500-5000. The membrane was immersed in the diluted primary antibody and incubated overnight at 4° C. After rinsing, the secondary antibody was diluted with a sealing solution at 1:10000-20000, the membrane was immersed in the diluted secondary antibody, and incubated at room temperature for 45 minutes. After rinsing, the results were tested on ODYSSEY (Li-COR). GAPDH was used as an internal reference control.
Image J software was used to perform gray level analysis on each band and the degradation rate of GSPT1 protein by the compounds was calculated.

T1 sequence (P15170 whole entry): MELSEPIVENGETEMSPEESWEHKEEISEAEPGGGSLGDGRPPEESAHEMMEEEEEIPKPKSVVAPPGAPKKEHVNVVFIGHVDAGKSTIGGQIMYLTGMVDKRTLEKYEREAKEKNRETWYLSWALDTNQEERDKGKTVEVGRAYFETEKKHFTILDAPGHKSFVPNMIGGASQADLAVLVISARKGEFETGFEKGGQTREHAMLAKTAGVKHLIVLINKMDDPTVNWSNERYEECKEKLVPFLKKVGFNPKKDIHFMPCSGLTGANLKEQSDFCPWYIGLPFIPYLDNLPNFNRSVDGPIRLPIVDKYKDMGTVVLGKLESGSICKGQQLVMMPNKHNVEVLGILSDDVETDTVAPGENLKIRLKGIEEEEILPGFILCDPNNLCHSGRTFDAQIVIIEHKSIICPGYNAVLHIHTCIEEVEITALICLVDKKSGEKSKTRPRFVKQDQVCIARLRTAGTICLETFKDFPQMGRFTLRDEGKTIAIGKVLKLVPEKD
T1 sequence (Q96SW2 whole entry): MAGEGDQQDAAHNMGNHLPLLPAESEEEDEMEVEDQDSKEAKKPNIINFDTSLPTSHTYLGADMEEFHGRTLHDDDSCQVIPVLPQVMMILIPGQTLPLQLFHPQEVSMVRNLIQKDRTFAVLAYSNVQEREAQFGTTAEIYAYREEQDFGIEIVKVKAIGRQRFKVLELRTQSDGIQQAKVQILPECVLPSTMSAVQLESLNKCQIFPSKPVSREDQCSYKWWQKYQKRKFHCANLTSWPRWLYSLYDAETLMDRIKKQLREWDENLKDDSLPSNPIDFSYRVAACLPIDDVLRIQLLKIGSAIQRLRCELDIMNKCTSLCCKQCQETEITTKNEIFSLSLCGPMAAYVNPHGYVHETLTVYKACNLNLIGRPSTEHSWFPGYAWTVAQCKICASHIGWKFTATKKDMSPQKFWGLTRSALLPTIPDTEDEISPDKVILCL
T1 sequence (Q16531 whole entry partner): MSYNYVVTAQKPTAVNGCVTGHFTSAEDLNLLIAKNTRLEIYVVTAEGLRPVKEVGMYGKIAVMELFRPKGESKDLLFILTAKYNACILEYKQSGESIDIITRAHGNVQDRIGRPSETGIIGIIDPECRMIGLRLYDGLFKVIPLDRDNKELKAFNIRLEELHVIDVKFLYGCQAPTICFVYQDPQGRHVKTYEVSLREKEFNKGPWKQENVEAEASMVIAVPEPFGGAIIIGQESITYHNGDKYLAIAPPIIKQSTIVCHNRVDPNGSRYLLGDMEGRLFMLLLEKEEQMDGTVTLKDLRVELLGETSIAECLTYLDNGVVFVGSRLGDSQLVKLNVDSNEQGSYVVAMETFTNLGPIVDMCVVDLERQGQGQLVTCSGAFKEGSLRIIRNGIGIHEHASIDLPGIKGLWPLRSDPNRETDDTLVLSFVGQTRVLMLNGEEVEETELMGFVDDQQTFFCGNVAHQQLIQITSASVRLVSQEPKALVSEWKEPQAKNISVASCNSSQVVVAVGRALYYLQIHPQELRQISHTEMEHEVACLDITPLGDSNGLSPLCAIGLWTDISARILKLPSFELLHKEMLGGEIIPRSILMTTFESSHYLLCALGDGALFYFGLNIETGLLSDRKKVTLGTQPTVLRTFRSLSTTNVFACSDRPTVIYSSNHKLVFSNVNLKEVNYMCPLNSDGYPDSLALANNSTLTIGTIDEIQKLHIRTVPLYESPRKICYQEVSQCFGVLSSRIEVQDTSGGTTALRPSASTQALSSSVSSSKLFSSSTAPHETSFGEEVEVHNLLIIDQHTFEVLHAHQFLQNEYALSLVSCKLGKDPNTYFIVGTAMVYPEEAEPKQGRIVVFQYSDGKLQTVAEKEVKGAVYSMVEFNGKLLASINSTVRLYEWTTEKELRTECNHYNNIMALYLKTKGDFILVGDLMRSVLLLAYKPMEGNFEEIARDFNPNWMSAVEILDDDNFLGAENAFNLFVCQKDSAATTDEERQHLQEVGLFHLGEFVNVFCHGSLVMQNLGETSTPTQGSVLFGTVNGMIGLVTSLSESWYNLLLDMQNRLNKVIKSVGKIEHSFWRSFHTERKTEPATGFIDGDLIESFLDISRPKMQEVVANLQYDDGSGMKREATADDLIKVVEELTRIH

Row | SMILES | inhibition at 0.1 µM (100 nM, Jeko-1 cells, 24 hours) [%] | inhibition at 10 µM (10 μM, Jeko-1 cells, 24 hours) [%] | other results
1 | O=C1CCC(N2Cc3cc(CNC(=O)[C@@H](NC(=O)OC4CCOCC4)c4ccccc4)ccc3C2=O)C(=O)N1 (stereo partly drawn) [Compound 6-03, ((1S)-2-(((2-(2,6-dioxopyridin-3-yl)-1-oxoisoindoline-5-yl)methyl)amino)-2-oxo-1-phenylethyl) carbamate-γ-Oxyhexanol Ester] |  |  | inhibition at 0.01 µM: 28%; inhibition at 1 µM: 90%
2 | O=C1CCC(N2Cc3cc(CNC(=O)[C@@H](NC(=O)OC4CCCCC4)c4ccccc4)ccc3C2=O)C(=O)N1 (stereo partly drawn) [Compound 6-02, ((1S)-2-(((2-(2,6-dioxypiperidin-3-yl)-1-oxoisoindoline-5-yl)methyl)amino)-2-oxo-1-phenylethyl) carbamate Cyclohexanol Ester] |  |  | inhibition at 0.01 µM: 95%; inhibition at 1 µM: 96%
3 | O=C1CCC(N2Cc3cc(CNC(=O)[C@H](CC4CCCCC4)NC(=O)OC4CCCC4)ccc3C2=O)C(=O)N1 (stereo partly drawn) [Compound 5-93, Cyclopentyl ((2S)-3-cyclohexyl-1-((2-(2,6-dioxopyridin-3-yl)-1-oxoisoidoline-5-yl)methyl)amino)-1-oxopropan-2-yl) carbamate] |  |  | inhibition at 0.1 µM: 99%; inhibition at 10 µM: 100%
4 | O=C1CCC(N2Cc3cc(CNC(=O)C(CNC(=O)Nc4ccccc4)c4ccccc4)ccc3C2=O)C(=O)N1 (stereo not drawn) [Compound 5-11, N-((2-(2,6-dioxypiperidin-3-yl)-1-oxoisoindolin-5-yl)methyl)-2-phenyl-3-(3-phenylurea) propionamide] |  |  | inhibition at 0.1 µM: 17%; inhibition at 10 µM: 77%
5 | CC(C)OC(=O)N[C@@H](Cc1ccccc1)C(=O)NCc1ccc2c(c1)CN(C1CCC(=O)NC1=O)C2=O (stereo partly drawn) [Compound 5-39, Isopropyl ((2S)-1-(2-(2,6-dioxypiperidin-3-yl)-1-oxoisoindoline-5-yl)methyl)amino)-1-oxo-3-phenylprop-2-yl) carbamate] |  |  | inhibition at 0.1 µM: 65.2%; inhibition at 10 µM: 85.8%
6 | O=C1CCC(N2Cc3cc(CNC(=O)[C@@H](NC(=O)NCc4ccccc4)c4ccccc4)ccc3C2=O)C(=O)N1 (stereo partly drawn) [Compound 4-184, (2S)-2-(3-benzylurea)-N-((2-(2,6-dioxopyridin-3-yl)-1-oxoisoidoline-5-yl)methyl)-2-phenylacetamide] | 21 | 85 | 
7 | O=C1CCC(N2Cc3cc(CNC(=O)C(CNC(=O)OC4CCCC4)c4ccccc4)ccc3C2=O)C(=O)N1 (stereo not drawn) [Compound 5-3, Cyclopentyl (3-((2-(2,6-dioxypiperidin-3-yl)-1-oxoisoindolin-5-yl)methyl)amino)-3-oxo-2-phenylpropyl) carbamate] |  |  | inhibition at 0.1 µM: 76%; inhibition at 10 µM: 49%
8 | CC(C)(C)NC(=O)CNC(Cc1ccccc1)C(=O)NCc1ccc2c(c1)CN(C1CCC(=O)NC1=O)C2=O (stereo not drawn) [Compound 4-186] | 26 | 56 | 
9 | CC(C)(C)OC(=O)N[C@H](Cc1ccccc1)C(=O)NCc1ccc2c(c1)CN(C1CCC(=O)NC1=O)C2=O (stereo partly drawn) [Compound 4-132, Tert butyl ((2R)-1-((2-(2,6-dioxypiperidin-3-yl)-1-oxoisoindoline-5-yl)methyl)amino)-1-oxo-3-phenylpro p-2-yl) carbamate] | 93 | 96 | 
10 | CC(C)(C)OC(=O)NC[C@@H](Cc1ccccc1)C(=O)NCc1ccc2c(c1)CN(C1CCC(=O)NC1=O)C2=O (stereo partly drawn) [Compound 4-171, Tert butyl ((2R)-2-benzyl-3-((2-(2,6-dioxypiperidin-3-yl)-1-oxoisoindolin-5-yl)methyl)amino)-3-oxopropyl) carbamate] | 29 | 88 | 
11 | CCOC(=O)N[C@H](C(=O)NCc1ccc2c(c1)CN(C1CCC(=O)NC1=O)C2=O)c1ccccc1 (stereo partly drawn) [Compound 4-138, Ethyl ((1S)-2-((2-(2,6-dioxypiperidin-3-yl)-1-oxoisoindoline-5-yl)methyl)amino)-2-oxo-1-phenylethyl) carbamate] | 31 | 88 | 
12 | Cc1ccc(S(=O)(=O)N[C@H](C(=O)NCc2ccc3c(c2)CN(C2CCC(=O)NC2=O)C3=O)c2ccccc2)cc1 (stereo partly drawn) [Compound 4-176] | 35 | 53 | 
13 | CC(C)OC(=O)N[C@H](C(=O)NCc1ccc2c(c1)CN(C1CCC(=O)NC1=O)C2=O)c1ccccc1 (stereo partly drawn) [Compound 4-160, Isopropyl ((1S)-2-((2-(2,6-dioxypiperidin-3-yl)-1-oxoisoindoline-5-yl)methyl)amino)-2-oxo-1-phenylethy 1) carbamate] |  |  | inhibition at 0.1 µM: 96%; inhibition at 10 µM: 89%
14 | N[C@H](C(=O)NCc1ccc2c(c1)CN(C1CCC(=O)NC1=O)C2=O)c1ccccc1 (stereo partly drawn) [Compound 4-87-2] | 21 | 15 | 
15 | CC(C)(C)OC(=O)NC(CC(=O)NCc1ccc2c(c1)CN(C1CCC(=O)NC1=O)C2=O)c1ccccc1 (stereo not drawn) [Compound 4-130, Tert butyl (3-((2-(2,6-dioxypiperidin-3-yl)-1-oxoisoindolin-5-yl)methyl)amino)-3-oxo-1-phenylpropyl) carbamate] | 51 | 94 | 
16 | O=C1CCC(N2Cc3cc(CNC(=O)C(CNC(=O)C4CCCC4)c4ccccc4)ccc3C2=O)C(=O)N1 (stereo not drawn) [Compound 5-9] |  |  | GSPT1 degradation rate (%) (100 nM, Jeko-1 cells, 24 hours): 45%; GSPT1 degradation rate (%) (10 μM, Jeko-1 cells, 24 hours): 93%

The next lines start with results.

Row | inhibition at 0.1 µM (100 nM, Jeko-1 cells, 24 hours) [%] | inhibition at 10 µM (10 μM, Jeko-1 cells, 24 hours) [%] | SMILES | other results
17 | 96.2 | 95.5 | CC(C)(C)OC(=O)N[C@H](Cc1ccccc1Cl)C(=O)NCc1ccc2c(c1)CN(C1CCC(=O)NC1=O)C2=O (stereo partly drawn) [Compound 5-83, Tert butyl ((2R)-3-(2-chlorophenyl)-1-((2-(2,6-dioxopyridin-3-yl)-1-oxoisoidoline-5-yl)methyl)amino)-1-oxopropan-2-yl) carbamate] | 
18 | 28 | 93 | CC(C)(C)C(=O)NCC(C(=O)NCc1ccc2c(c1)CN(C1CCC(=O)NC1=O)C2=O)c1ccccc1 (stereo not drawn) [Compound 5-23, N-((2-(2,6-dioxypiperidin-3-yl)-1-oxoisoidoline-5-yl)methyl)-2-phenyl-3-terpentylaminopropionamide] | 
19 | 29.8 | 74.8 | CC(C)(C)OC(=O)O[C@H](C(=O)NCc1ccc2c(c1)CN(C1CCC(=O)NC1=O)C2=O)c1ccccc1 (stereo partly drawn) [Compound 5-82, Tert butyl ((1S)-2-((2-(2,6-dioxypiperidin-3-yl)-1-oxoisoindoline-5-yl)methyl)amino)-2-oxo-1-phenylethy 1) carbonate] | 
20 | 18 | 71 | CC(C)(C)NC(=O)NCC(C(=O)NCc1ccc2c(c1)CN(C1CCC(=O)NC1=O)C2=O)c1ccccc1 (stereo not drawn) [Compound 5-12] | 
21 | 59 | 93 | O=C1CCC(N2Cc3cc(CNC(=O)C(NC(=O)C4CCCC4)c4ccccc4)ccc3C2=O)C(=O)N1 (stereo not drawn) [Compound 5-30] | 
22 | 58 | 96 | O=C1CCC(N2Cc3cc(CNC(=O)C(CNC(=O)C4CCCCC4)c4ccccc4)ccc3C2=O)C(=O)N1 (stereo not drawn) [Compound 5-25] | 
23 | 32 | 63 | CC(C)(C)NC(=O)NCC(Cc1ccccc1)C(=O)NCc1ccc2c(c1)CN(C1CCC(=O)NC1=O)C2=O (stereo not drawn) [Compound 4-188, 2-Benzyl-3-(3-(tertbutyl)urea)-N-((2-(2,6-dioxypiperidin-3-yl)-1-oxoisoindoline-5-yl)methyl) propionamide] | 
24 | 85.1 | 93.9 | CC(C)(C)OC(=O)NCC(C(=O)NCc1ccc2c(c1)CN(C1CCC(=O)NC1=O)C2=O)C1CCCCC1 (stereo not drawn) [Compound 5-55, Tert butyl (2-cyclohexyl-3-((2-(2,6-dioxypiperidin-3-yl)-1-oxoisoindoline-5-yl)methyl)amino)-3-oxopropyl) carbamate] | 
25 | 16 | 70 | O=C1CCC(N2Cc3cc(CNC(=O)[C@@H](CNC(=O)C4CCCC4)c4ccccc4)ccc3C2=O)C(=O)N1 (stereo partly drawn) [Compound 5-95] | 
26 | 98 | 99 | CC(C)(C)OC(=O)NC(CC(=O)NCc1ccc2c(c1)CN(C1CCC(=O)NC1=O)C2=O)C1CCCC1 (stereo not drawn) [Compound 5-99, Tert butyl (1-cyclopentyl-3-((2-(2,6-dioxypiperidin-3-yl)-1-oxoisoindoline-5-yl)methyl)amino)-3-oxopropyl) carbamate] | 
27 | 26.1 | 91.2 | O=C1CCC(N2Cc3cc(CNC(=O)C(CNC(=O)C4CCCC4)c4ccccc4)ccc3C2=O)C(=O)N1 [Compound 5-53, N-((2R)-3-((2-(2,6-dioxypiperidin-3-yl)-1-oxoisoindolin-5-yl)methyl)amino)-3-oxo-2-phen ylpropyl) cyclopentyl Formamide] | 
28 | 14 | 81 | COC(C(=O)N[C@H](C(=O)NCc1ccc2c(c1)CN(C1CCC(=O)NC1=O)C2=O)c1ccccc1)c1ccccc1 (stereo partly drawn) [Compound 4-199] | 
29 | 38.1 | 92.7 | O=C1CCC(N2Cc3cc(CNC(=O)[C@@H](CNC(=O)C4CCCC4)c4ccc(Cl)cc4)ccc3C2=O)C(=O)N1 (stereo partly drawn) [Compound 5-52] | 
30 | 36 | 93.7 | O=C1CCC(N2Cc3cc(CNC(=O)C(CNC(=O)C4CCCC4)C4CCCCC4)ccc3C2=O)C(=O)N1 (stereo not drawn) [Compound 5-59] | 
